The text below walks through data of patent publication US9758524B2, “4-imidazopyridazin-1-yl-benzamides as Btk inhibitors” (Merck Sharp & Dohme B.V., priority 2011, dated 2017).

One test concerns the target Src enzyme (Homo sapiens (Human), UniProt P12931). Kind of test: Src enzyme activity (IMAP fluorescence polarization assay). The settings on record: read-out: EC50 Src activity values; IMAP, 60 min pre-incubation, 4 μM ATP. A general note: Fluorescence polarisation rises when a labelled molecule tumbles more slowly, as on binding a larger partner.
Another test has as its target Btk enzyme (His-Btk) (Homo sapiens (Human), UniProt Q06187). Kind of test: Btk enzyme activity (IMAP fluorescence polarization assay). The settings on record: for EC50: read-out: EC50 Btk activity values; for EC50 / EC50 Btk activity values: IMAP, 60 min pre-incubation, 5 μM ATP.
A further test has as its target FynT enzyme (Homo sapiens (Human), UniProt P06241). Kind of test: FynT enzyme activity (IMAP fluorescence polarization assay). The class given is biochemical. The settings on record: 60 min pre-incubation, 0.2 μM ATP. In short, it runs like this: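 Human FynT pre-incubated with compounds 60 min at room temperature, then reacted 2 h at room temperature with fluorescein-labelled p34cdc2 peptide (100 nM final). Stopped with IMAP binding solution; fluorescence polarization read after 60 min. Activity as % of ±ATP control difference; EC50 by curve fitting.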

For the next test, the target named is Lck enzyme (Homo sapiens (Human), UniProt P06239). Kind of test: Lck enzyme activity (IMAP fluorescence polarization assay). The settings on record: for EC50: read-out: EC50 Lck activity values; for EC50 / EC50 Lck activity values: IMAP, 60 min pre-incubation, 6 μM ATP, bin bound in μM.
Lck enzyme, sequence (P06239 whole entry): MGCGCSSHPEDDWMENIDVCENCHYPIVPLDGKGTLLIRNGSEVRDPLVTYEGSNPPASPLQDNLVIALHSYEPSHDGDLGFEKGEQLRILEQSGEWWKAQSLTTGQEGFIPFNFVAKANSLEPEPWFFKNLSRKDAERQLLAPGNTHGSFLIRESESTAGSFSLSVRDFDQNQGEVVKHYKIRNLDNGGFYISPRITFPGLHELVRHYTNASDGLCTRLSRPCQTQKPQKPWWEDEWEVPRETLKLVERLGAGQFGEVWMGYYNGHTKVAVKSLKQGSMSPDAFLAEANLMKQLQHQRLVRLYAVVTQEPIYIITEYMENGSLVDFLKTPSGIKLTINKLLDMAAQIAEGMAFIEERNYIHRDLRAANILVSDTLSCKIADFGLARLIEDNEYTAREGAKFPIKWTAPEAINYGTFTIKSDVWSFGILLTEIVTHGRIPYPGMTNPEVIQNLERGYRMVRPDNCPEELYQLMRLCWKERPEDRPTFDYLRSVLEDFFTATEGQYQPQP
The target in the next test is Lyn enzyme (Homo sapiens (Human), UniProt P07948). Kind of test: Lyn enzyme activity (IMAP fluorescence polarization assay).
Lyn enzyme, sequence (P07948 whole entry): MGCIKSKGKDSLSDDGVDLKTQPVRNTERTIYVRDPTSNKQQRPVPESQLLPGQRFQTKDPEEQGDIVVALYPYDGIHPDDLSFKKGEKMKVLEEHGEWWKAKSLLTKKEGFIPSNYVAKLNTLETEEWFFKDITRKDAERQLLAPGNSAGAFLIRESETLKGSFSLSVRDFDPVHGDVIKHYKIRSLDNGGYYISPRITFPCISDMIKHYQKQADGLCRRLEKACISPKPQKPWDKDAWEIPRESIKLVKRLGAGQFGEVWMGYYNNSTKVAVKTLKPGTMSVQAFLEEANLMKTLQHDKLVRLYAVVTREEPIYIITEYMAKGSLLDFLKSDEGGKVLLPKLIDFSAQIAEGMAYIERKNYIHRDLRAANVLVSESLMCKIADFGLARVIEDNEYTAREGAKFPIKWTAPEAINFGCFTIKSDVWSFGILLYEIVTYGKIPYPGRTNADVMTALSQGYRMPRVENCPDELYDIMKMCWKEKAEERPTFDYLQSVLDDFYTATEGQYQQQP
The mark [1] stands for this setting: read-out: EC50 Lyn activity values, 60 min pre-incubation, 2 μM ATP, bin bound in μM.

Broadly, the pEC50 is the EC50 on a negative log10 scale, so that one unit is a factor of ten. By EC50 is commonly meant the concentration giving half of the maximal effect.

Structures are written as SMILES. pEC50: −log10 of the molar value. Read-outs that look alike come from different tables or passages of the source. Bounds are passed on as bounds.

Btk enzyme (His-Btk), sequence (Q06187 whole entry): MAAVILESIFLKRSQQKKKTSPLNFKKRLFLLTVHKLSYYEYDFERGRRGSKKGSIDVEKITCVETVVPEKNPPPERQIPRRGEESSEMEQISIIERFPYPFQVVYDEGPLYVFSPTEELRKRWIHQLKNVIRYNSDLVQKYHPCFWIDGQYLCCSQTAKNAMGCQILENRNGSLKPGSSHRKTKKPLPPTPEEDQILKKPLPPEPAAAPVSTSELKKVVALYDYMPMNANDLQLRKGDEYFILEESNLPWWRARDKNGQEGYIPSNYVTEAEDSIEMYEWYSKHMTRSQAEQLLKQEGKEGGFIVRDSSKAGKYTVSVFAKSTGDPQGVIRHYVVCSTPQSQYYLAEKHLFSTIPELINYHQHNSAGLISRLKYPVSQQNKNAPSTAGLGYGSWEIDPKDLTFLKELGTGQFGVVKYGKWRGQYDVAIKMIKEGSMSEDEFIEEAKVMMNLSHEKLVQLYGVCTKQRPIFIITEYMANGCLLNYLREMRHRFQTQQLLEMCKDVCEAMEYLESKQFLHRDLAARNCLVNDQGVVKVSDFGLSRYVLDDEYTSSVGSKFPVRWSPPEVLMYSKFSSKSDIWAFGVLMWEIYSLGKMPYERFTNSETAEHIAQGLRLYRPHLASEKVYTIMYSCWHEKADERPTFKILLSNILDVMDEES
Src enzyme, sequence (P12931 whole entry, looked up): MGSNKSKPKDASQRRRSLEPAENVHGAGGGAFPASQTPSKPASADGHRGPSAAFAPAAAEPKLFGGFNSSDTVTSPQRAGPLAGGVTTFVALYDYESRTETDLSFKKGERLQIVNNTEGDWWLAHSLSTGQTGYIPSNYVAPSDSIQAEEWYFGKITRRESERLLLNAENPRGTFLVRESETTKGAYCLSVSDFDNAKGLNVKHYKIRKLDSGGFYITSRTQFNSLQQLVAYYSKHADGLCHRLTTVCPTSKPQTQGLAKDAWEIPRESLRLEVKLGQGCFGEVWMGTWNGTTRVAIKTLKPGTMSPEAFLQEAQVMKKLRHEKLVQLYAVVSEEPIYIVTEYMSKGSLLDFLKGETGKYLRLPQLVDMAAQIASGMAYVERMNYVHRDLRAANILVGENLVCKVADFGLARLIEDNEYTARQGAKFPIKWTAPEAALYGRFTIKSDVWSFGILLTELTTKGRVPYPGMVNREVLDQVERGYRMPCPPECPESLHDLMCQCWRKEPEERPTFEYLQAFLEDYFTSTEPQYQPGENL
FynT enzyme, sequence (P06241 other isoform, or with tags, fused parts or gaps): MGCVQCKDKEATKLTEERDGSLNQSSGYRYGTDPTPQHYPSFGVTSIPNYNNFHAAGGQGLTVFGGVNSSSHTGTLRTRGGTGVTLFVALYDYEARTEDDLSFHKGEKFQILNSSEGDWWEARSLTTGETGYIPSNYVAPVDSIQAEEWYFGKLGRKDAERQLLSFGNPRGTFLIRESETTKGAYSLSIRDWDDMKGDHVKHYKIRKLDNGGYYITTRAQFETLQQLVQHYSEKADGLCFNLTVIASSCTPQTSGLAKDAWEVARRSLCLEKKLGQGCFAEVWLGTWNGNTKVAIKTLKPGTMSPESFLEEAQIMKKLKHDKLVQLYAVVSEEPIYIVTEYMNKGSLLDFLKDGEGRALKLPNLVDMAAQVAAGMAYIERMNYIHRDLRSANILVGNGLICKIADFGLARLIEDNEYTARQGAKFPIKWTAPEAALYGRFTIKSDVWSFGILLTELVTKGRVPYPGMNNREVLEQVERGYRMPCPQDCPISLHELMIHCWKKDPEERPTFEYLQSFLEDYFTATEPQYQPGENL

In the case of `Nc1nccn2c([C@@H]3CCCN3C(=O)C#CC3CC3)nc(-c3ccc(C(=O)Nc4ccccn4)cc3)c12` [Example 35, (S)-4-(8-Amino-3-(1-(3-cyclopropylpropioloyl)pyrrolidin-2-yl)imidazo[1,5-a]pyrazin-1-yl)-N-(pyridin-2-yl)benzamide], the pEC50 on Src enzyme and at FynT enzyme was at most 6.00 each time. Besides, the EC50 at Btk enzyme (His-Btk) (bin bound in nM) is below 10 nM; at Lck enzyme it was at least 1 µM; at Lyn enzyme (setting [1]) it was at least 1 µM.
Take `CCCc1ccnc(NC(=O)c2ccc(-c3nc([C@H](C)N(C)C(=O)/C=C/COC)n4ccnc(N)c34)cc2)c1` [Example 48, (S,E)-4-(8-amino-3-(1-(4-methoxy-N-methylbut-2-enamido)ethyl)imidazo[1,5-a]pyrazin-1-yl)-N-(4-propylpyridin-2-yl)benzamide]: the pEC50 at Src enzyme and at FynT enzyme was at most 6.00 in each case. In addition, the EC50 is below 10 nM at Btk enzyme (His-Btk) (bin bound in nM), at least 1 µM on Lck enzyme and at least 1 µM at Lyn enzyme (setting [1]).
With `C=CC(=O)N1CCC[C@H]1c1nc(-c2ccc(C(=O)Nc3cc(C(F)(F)F)ccn3)cc2)c2c(N)nccn12` [Example 62, (S)-4-(3-(1-acryloylpyrrolidin-2-yl)-8-aminoimidazo[1,5-a]pyrazin-1-yl)-N-(4-(trifluoromethyl)pyridin-2-yl)benzamide], the pEC50 was at most 6.00 on Src enzyme, at most 6.00 on FynT enzyme and 6.00 to 7.00 on Lck enzyme. The EC50 on Btk enzyme (His-Btk) (bin bound in nM) was below 10 nM; at Lyn enzyme (setting [1]), at least 1 µM. Further, the “EC50 Lck activity values” at Lck enzyme is below 1 µM.
As to `COC/C=C/C(=O)N1CCCC[C@H]1c1nc(-c2ccc(C(=O)Nc3ccccn3)cc2C)c2c(N)nccn12` [Example 85, 4-(8-amino-3-((S)-1-((E)-4-methoxybut-2-enoyl)piperidin-2-yl)imidazo[1,5-a]pyrazin-1-yl)-3-methyl-N-(pyridin-2-yl)benzamide], the pEC50 was at most 6.00 at Src enzyme, 6.00 to 7.00 at Btk enzyme (His-Btk) and at most 6.00 at FynT enzyme. Also, at Btk enzyme (His-Btk) (bin bound in μM), the “EC50 Btk activity values” is below 1 µM. Moreover, the EC50 on Lck enzyme and at Lyn enzyme (setting [1]) was at least 1 µM throughout.
As to `CN(C)C/C=C/C(=O)NCc1nc(-c2ccc(C(=O)Nc3ccccn3)cc2)c2c(N)nccn12` [Example 69, (E)-4-(8-amino-3-((4-(dimethylamino)but-2-enamido)methyl)imidazo[1,5-a]pyrazin-1-yl)-N-(pyridin-2-yl)benzamide], the pEC50 is at most 6.00 on Src enzyme, 7.00 to 8.00 on Btk enzyme (His-Btk) and at most 6.00 at FynT enzyme. Besides, the “EC50 Btk activity values” at Btk enzyme (His-Btk) (bin bound in nM) was below 0.1 µM. In addition, the EC50 at Lck enzyme and at Lyn enzyme (setting [1]) was at least 1 µM each time.
Turning to `Nc1nccn2c([C@@H]3CCCN3C(=O)c3ccnc(Cl)n3)nc(-c3ccc(C(=O)Nc4ccccn4)cc3)c12` [Example 5, (S)-4-(8-amino-3-(1-(2-chloropyrimidine-4-carbonyl)pyrrolidin-2-yl)imidazo[1,5-a]pyrazin-1-yl)-N-(pyridin-2-yl)benzamide], the pEC50 was at most 6.00 on Src enzyme, 7.00 to 8.00 on Btk enzyme (His-Btk) and at most 6.00 at FynT enzyme. Besides, the “EC50 Btk activity values” at Btk enzyme (His-Btk) (bin bound in nM) is below 0.1 µM. For the same molecule, the EC50 at Lck enzyme and at Lyn enzyme (setting [1]) was at least 1 µM throughout.
As to `C=CC(=O)N1CCC[C@H]1c1nc(-c2ccc(C(=O)Nc3cc(-c4ccccc4)ccn3)cc2)c2c(N)nccn12` [Example 133, (S)-4-(3-(1-acryloylpyrrolidin-2-yl)-8-aminoimidazo[1,5-a]pyrazin-1-yl)-N-(4-phenylpyridin-2-yl)benzamide], the pEC50 is at most 6.00 on Src enzyme, at most 6.00 at FynT enzyme and 6.00 to 7.00 on Lck enzyme. The EC50 at Btk enzyme (His-Btk) (bin bound in nM) is below 10 nM; at Lyn enzyme (EC50 Lyn activity values, 60 min pre-incubation, 2 μM ATP, bin bound in nM) it was 0.1 to 1 µM. For the same molecule, the “EC50 Lck activity values” on Lck enzyme was below 1 µM. The “EC50 Lyn activity values” at Lyn enzyme (60 min pre-incubation, 2 μM ATP, bin bound in μM) was below 1 µM.
With `COC/C=C/C(=O)N1CCC[C@H]1c1nc(-c2ccc(C(=O)Nc3ccccn3)cc2)c2c(N)nccn12` [Example 4, (S,E)-4-(8-amino-3-(1-(4-methoxybut-2-enoyl)pyrrolidin-2-yl)imidazo[1,5-a]pyrazin-1-yl)-N-(pyridin-2-yl)benzamide], the pEC50 on Src enzyme is at most 6.00; at Btk enzyme (His-Btk), 7.00 to 8.00; at FynT enzyme, at most 6.00. The “EC50 Btk activity values” at Btk enzyme (His-Btk) (bin bound in nM) was below 0.1 µM. Moreover, the EC50 at Lck enzyme and at Lyn enzyme (setting [1]) was at least 1 µM each time.
Consider `COC/C=C/C(=O)N1CCCC[C@H]1c1nc(-c2ccc(C(=O)Nc3ncccn3)cc2)c2c(N)nccn12` [Example 55, (S,E)-4-(8-amino-3-(1-(4-methoxybut-2-enoyl)piperidin-2-yl)imidazo[1,5-a]pyrazin-1-yl)-N-(pyrimidin-2-yl)benzamide], for which the pEC50 is at most 6.00 at Src enzyme, 6.00 to 7.00 at Btk enzyme (His-Btk) and at most 6.00 at FynT enzyme. Further, the “EC50 Btk activity values” at Btk enzyme (His-Btk) (bin bound in μM) is below 1 µM. Besides, the EC50 at Lck enzyme and at Lyn enzyme (setting [1]) was at least 1 µM each time.
In the case of `CC#CC(=O)NCc1nc(-c2ccc(C(=O)Nc3ccccn3)cc2)c2c(N)nccn12` [Example 112, 4-(8-amino-3-(but-2-ynamidomethyl)imidazo[1,5-a]pyrazin-1-yl)-N-(pyridin-2-yl)benzamide], the pEC50 at Src enzyme was at most 6.00; at Btk enzyme (His-Btk), 7.00 to 8.00; at FynT enzyme it was at most 6.00. Also, the “EC50 Btk activity values” at Btk enzyme (His-Btk) (bin bound in nM) is below 0.1 µM. Also, the EC50 at Lck enzyme and at Lyn enzyme (setting [1]) was at least 1 µM throughout.
For the molecule `CC(C)c1ccnc(NC(=O)c2ccc(-c3nc([C@@H]4CCCN4C(=O)c4ccnc(Cl)n4)n4ccnc(N)c34)cc2)c1` [Example 70, (S)-4-(8-amino-3-(1-(2-chloropyrimidine-4-carbonyl)pyrrolidin-2-yl)imidazo[1,5-a]pyrazin-1-yl)-N-(4-isopropylpyridin-2-yl)benzamide], the pEC50 at Src enzyme was at most 6.00; at Btk enzyme (His-Btk) it was 7.00 to 8.00; on FynT enzyme, at most 6.00. The “EC50 Btk activity values” on Btk enzyme (His-Btk) (bin bound in nM) was below 0.1 µM. Moreover, the EC50 on Lck enzyme and at Lyn enzyme (setting [1]) was at least 1 µM in each case.
Consider `CN(C)CC#CC(=O)N1CCC[C@H]1c1nc(-c2ccc(C(=O)Nc3ccccn3)cc2)c2c(N)nccn12` [Example 40, (S)-4-(8-Amino-3-(1-(4-(dimethylamino)but-2-ynoyl)pyrrolidin-2-yl)imidazo[1,5-a]pyrazin-1-yl)-N-(pyridin-2-yl)benzamide], for which the pEC50 at Src enzyme was at most 6.00; on Btk enzyme (His-Btk), 7.00 to 8.00; at FynT enzyme it was at most 6.00. The “EC50 Btk activity values” on Btk enzyme (His-Btk) (bin bound in nM) was below 0.1 µM. Also, the EC50 at Lck enzyme and on Lyn enzyme (setting [1]) was at least 1 µM in each case.
Take `C=CS(=O)(=O)N1CCCC[C@H]1c1nc(-c2ccc(C(=O)Nc3cc(C(F)(F)F)ccn3)cc2)c2c(N)nccn12` [Example 19, (S)-4-(8-Amino-3-(1-(vinylsulfonyl)piperidin-2-yl)imidazo[1,5-a]pyrazin-1-yl)-N-(4-(trifluoromethyl)pyridin-2-yl)benzamide]: the pEC50 at Src enzyme and at FynT enzyme was at most 6.00 in each case. The EC50 on Btk enzyme (His-Btk) (bin bound in nM) was below 10 nM; at Lck enzyme, at least 1 µM; on Lyn enzyme (setting [1]), at least 1 µM.
In the case of `CC#CC(=O)N1CCC[C@H]1c1nc(-c2ccc(C(=O)Nc3cc(CCC)ccn3)cc2)c2c(N)nccn12` [Example 47, (S)-4-(8-amino-3-(1-but-2-ynoylpyrrolidin-2-yl)imidazo[1,5-a]pyrazin-1-yl)-N-(4-propylpyridin-2-yl)benzamide], the pEC50 on Src enzyme and on FynT enzyme was at most 6.00 each time. Moreover, the EC50 was below 10 nM on Btk enzyme (His-Btk) (bin bound in nM), at least 1 µM at Lck enzyme and at least 1 µM on Lyn enzyme (setting [1]).
Turning to `COC/C=C/C(=O)N1CCC[C@H]1c1nc(-c2ccc(C(=O)Nc3cc(C(C)C)ccn3)cc2)c2c(N)nccn12` [Example 58, (S,E)-4-(8-amino-3-(1-(4-methoxybut-2-enoyl)pyrrolidin-2-yl)imidazo[1,5-a]pyrazin-1-yl)-N-(4-isopropylpyridin-2-yl)benzamide], the pEC50 at Src enzyme was at most 6.00; on Btk enzyme (His-Btk) it was 7.00 to 8.00; on FynT enzyme it was at most 6.00. For the same molecule, the “EC50 Btk activity values” at Btk enzyme (His-Btk) (bin bound in nM) is below 0.1 µM. For the same molecule, the EC50 on Lck enzyme and on Lyn enzyme (setting [1]) was at least 1 µM throughout.
For `Nc1nccn2c([C@@H]3CCCN3C(=O)c3ccnc(Cl)n3)nc(-c3ccc(C(=O)Nc4nc5c(s4)CCCC5)cc3)c12` [Example 71, (S)-4-(8-amino-3-(1-(2-chloropyrimidine-4-carbonyl)pyrrolidin-2-yl)imidazo[1,5-a]pyrazin-1-yl)-N-(4,5,6,7-tetrahydrobenzo[d]thiazol-2-yl)benzamide], the figures for the pEC50 on Src enzyme, on Btk enzyme (His-Btk) and on FynT enzyme were at most 6.00, 7.00 to 8.00 and at most 6.00, respectively. Moreover, the “EC50 Btk activity values” on Btk enzyme (His-Btk) (bin bound in nM) was below 0.1 µM. Also, the EC50 on Lck enzyme and on Lyn enzyme (setting [1]) was at least 1 µM throughout.
As to `C=CC(=O)N1CCCC[C@H]1c1nc(-c2ccc(C(=O)Nc3ccccn3)cc2)c2c(N)nccn12` [Example 46, (S)-4-(3-(1-acryloylpiperidin-2-yl)-8-aminoimidazo[1,5-a]pyrazin-1-yl)-N-(pyridin-2-yl)benzamide], the pEC50 at Src enzyme and at FynT enzyme was at most 6.00 throughout. The EC50 on Btk enzyme (His-Btk) (bin bound in nM) was below 10 nM; on Lck enzyme, at least 1 µM; on Lyn enzyme (setting [1]) it was at least 1 µM.
